Data taken from PubChem BioAssay (NCI).
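Five compound concentrations were applied to cells in 96-well plates for 48 hours; endpoints were derived by simple linear interpolation of the resulting dose-response curve. The concentration for 50% growth inhibition is given as GI50. TGI: total growth inhibition.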

Experiments:
Test in all cases: NCI anticancer screen, dose series, 48 h
NCI/ADR-RES ovarian = tested on: NCI/ADR-RES ovarian
MDA-MB-435 = tested on: MDA-MB-435
T-47D breast = tested on: T-47D breast
DU-145 prostate = tested on: DU-145 prostate
XF 498 CNS = tested on: XF 498 CNS
LXFL 529 NSCLC = tested on: LXFL 529 NSCLC
KM20L2 colon = tested on: KM20L2 colon
M19-MEL melanoma = tested on: M19-MEL melanoma
DLD-1 colon = tested on: DLD-1 colon

Structure (SMILES)	GI50 (NCI/ADR-RES ovarian)	TGI (NCI/ADR-RES ovarian)	GI50 (MDA-MB-435)	TGI (MDA-MB-435)	GI50 (T-47D breast)	TGI (T-47D breast)	GI50 (DU-145 prostate)	TGI (DU-145 prostate)	TGI (XF 498 CNS)	TGI (LXFL 529 NSCLC)	TGI (KM20L2 colon)	TGI (M19-MEL melanoma)	TGI (DLD-1 colon)	GI50 (DLD-1 colon)	GI50 (LXFL 529 NSCLC)	GI50 (KM20L2 colon)	GI50 (M19-MEL melanoma)
O=c1c2c3c(sc2n2c(-c4cc(-c5ccccc5)nn4-c4ccccc4)nnc2n1Cc1ccccc1)CCCC3	> 100 µM	> 100 µM	> 100 µM	> 100 µM	> 100 µM	> 100 µM	> 100 µM	> 100 µM	–	–	–	–	–	–	–	–	–
O=C(NC12CC3CC(CC(C3)C1)C2)C(=O)c1c[nH]c2ccc(Cl)cc12	–	–	–	–	–	–	–	–	43 µM	> 100 µM	> 100 µM	> 100 µM	–	–	–	–	–
OB1OCc2cc(/C=C/c3cccc(C(F)(F)F)c3)ccc21	0.544 µM	23.9 µM	5.29 µM	> 100 µM	0.425 µM	> 100 µM	0.554 µM	15.3 µM	–	–	–	–	–	–	–	–	–
Cn1c2ccccc2c2c(=O)c3ccccc3[nH]c21	43.7 µM	> 100 µM	70.2 µM	> 100 µM	–	–	33.2 µM	> 100 µM	–	–	–	–	–	–	–	–	–
NC(=O)c1cccc(Nc2nccc(Nc3cccc(F)c3)n2)c1	8.75 µM	> 25 µM	6.15 µM	> 25 µM	4.38 µM	16.5 µM	8.1 µM	> 25 µM	–	–	–	–	–	–	–	–	–
Cl[Si]1(Cl)Oc2ccccc2O[Si](Cl)(Cl)Oc2ccccc2O1	–	–	–	–	–	–	–	–	30.3 µM	–	> 100 µM	25.3 µM	> 100 µM	–	–	–	–
CCOC1Oc2ccccc2-c2oc(=O)c(Sc3ccc(C)cc3)cc21 (stereo not given)	35 µM	> 100 µM	23.6 µM	> 100 µM	1.63 µM	56.4 µM	31.8 µM	> 100 µM	–	–	–	–	–	–	–	–	–
CCN(CC)CCNC(=O)c1cn2ncnc(Oc3ccc(NC(=O)Nc4ccc(Cl)c(C(F)(F)F)c4)c(F)c3)c2c1C	1.95 µM	3.82 µM	1.57 µM	3.02 µM	1.83 µM	4 µM	1.72 µM	3.12 µM	–	–	–	–	–	–	–	–	–
CC(C)c1ccccc1NC(=O)/C(Cl)=C1/Sc2ccccc2NC1=O	–	–	–	–	–	–	–	–	–	> 100 µM	59.7 µM	> 100 µM	> 100 µM	–	–	–	–
Cn1cc(-c2csc(-c3cn(C)c4ccccc34)n2)c2cnccc21	1.83 µM	4.32 µM	1.77 µM	3.24 µM	–	–	2.13 µM	4.41 µM	–	–	–	–	–	–	–	–	–
CCCCCCCCCCN=C(c1ccc(N(C)C)cc1)c1ccc(N(C)C)cc1	0.406 µM	42.4 µM	0.0726 µM	0.332 µM	0.6 µM	> 54 µM	2.42 µM	> 83 µM	–	–	–	–	–	–	–	–	–
Cc1c(C(=O)CSc2nc3ccccc3c(=O)n2-c2ccccc2)c(=O)n(-c2ccccc2)n1C	–	–	–	–	–	–	–	–	> 100 µM	–	> 100 µM	> 100 µM	> 100 µM	–	–	–	–
CCCCCCCCCCCCCCCCCCNC(=O)[C@H]1CSC(c2cccs2)N1 (stereo not given in full)	1.06 µM	2.31 µM	0.77 µM	1.53 µM	0.892 µM	1.84 µM	2.91 µM	> 50 µM	–	–	–	–	–	–	–	–	–
OC(CN1CC1)C(O)CN1CC1 (stereo not given)	> 50 µg/mL	> 50 µg/mL	> 50 µg/mL	> 50 µg/mL	> 50 µg/mL	> 50 µg/mL	> 50 µg/mL	> 50 µg/mL	–	–	–	–	–	–	–	–	–
O=C1C=C(O)c2[nH]c(=O)ccc2C1=O	–	–	–	–	–	–	–	–	> 100 µM	–	> 100 µM	> 100 µM	> 100 µM	–	–	–	–
COC(=O)/C(C#N)=C1\CCC(C(=O)OC)N1C (stereo not given)	–	–	–	–	–	–	–	–	> 100 µM	–	> 100 µM	> 100 µM	> 100 µM	–	–	–	–
CC1(C)N=C(N)N=C(N)N1c1ccc(OCC(=O)Nc2ccccc2)c(Cl)c1	> 100 µM	> 100 µM	0.522 µM	> 100 µM	> 65.8 µM	> 100 µM	1.15 µM	> 100 µM	–	–	–	–	–	–	–	–	–
Cc1ccc2nc3c(Cl)c(C)c(=O)cc-3sc2c1	–	–	–	–	–	–	–	–	–	> 100 µM	> 100 µM	> 100 µM	> 100 µM	42.6 µM	62.9 µM	> 100 µM	46.4 µM
COc1ccc(CC(C)C(C)Cc2ccc(OC)c(OC)c2)cc1OC (stereo not given)	> 1400 µM	> 1400 µM	> 1400 µM	> 1400 µM	> 1400 µM	> 1400 µM	> 1400 µM	> 1400 µM	–	–	–	–	–	–	–	–	–
C[C@H]1[C@H](C)CC[C@]2(C(=O)NCCNCCN)CC[C@]3(C)C(=CC[C@@H]4[C@@]5(C)CCC(=O)C(C)(C)[C@@H]5CC[C@]43C)[C@H]12	5.16 µM	20 µM	1.73 µM	3.23 µM	–	–	1.8 µM	3.35 µM	–	–	–	–	–	–	–	–	–
Cc1cc(Nc2nc(SCc3ccc(C(=O)Nc4ccc(F)cc4N)cc3)nn3cccc23)n[nH]1	1.98 µM	> 100 µM	–	–	1.12 µM	52.6 µM	0.461 µM	> 100 µM	–	–	–	–	–	–	–	–	–
OC(c1ccc(Br)cc1)(c1cccs1)C1CC1 (stereo not given)	–	60.5 µM	–	36.1 µM	–	88.5 µM	–	81.6 µM	–	–	–	–	–	–	–	–	–
C=C(CN1CCc2ccccc2C1)c1ccc(C(=O)Nc2ccccc2N)cc1	1.11 µM	> 9.95 µM	1.47 µM	4.23 µM	> 15.8 µM	> 39 µM	2.45 µM	15.7 µM	–	–	–	–	–	–	–	–	–
CCCCCCCCCCCC[n+]1ccccc1 (tested in a mixture with another compound)	14.4 µM	52.2 µM	0.678 µM	2.47 µM	0.375 µM	3.94 µM	1.5 µM	9.88 µM	–	–	–	–	–	–	–	–	–
COc1ccc(/C=C2/CCc3cc4ccc(OC)cc4[o+]c32)c(O)c1	4.16 µM	50.6 µM	1.78 µM	3.47 µM	3.04 µM	22.1 µM	8.15 µM	20.5 µM	–	–	–	–	–	–	–	–	–
O=C1C(Cl)=C(Nc2ccccc2)C(=O)c2ccccc21	2.11 µM	4.89 µM	1.8 µM	3.27 µM	–	–	9.34 µM	22 µM	–	–	–	–	–	–	–	–	–
